Measurements: patent US4241056A, “Penicillins and salts thereof” (Boehringer Ingelheim GmbH, priority 1978, dated 1980)
In brackets after ≈: the same amount, converted by molar mass. Where two headings read alike, the source gives them in different places.

Columns and labels:
[1] = test system: Staphylococcus aureus SG 511; assay: MIC, serial dilution test in the microtiter system; assay type: cell-based; settings: SG511, 18 h, Staph. Aureus SG 511, 37° C., 18-20 hours
Description: (§1) The tests were performed according to the method of the serial dilution test in the microtiter system. The effect of the substances on bacteriostasis was examined in a fluid medium. The activity on bacteriostatis was examined at the following concentrations:
(§2) 10 gm of peptone, 8 gm of meat extract-oxoid, 3 gm of sodium chloride, 2 gm of sec. sodium phosphate were diluted with distilled water to 1000 ml (pH 7.2-7.4). Only in the test against streptococci 1% of glucose was added. The age of the primary cultures was about 20 hours. The standardizations of the pathogen suspension was effected by using a photometer according to "Eppendorf" (test tube diameter 14 mm, filter 546 nm) with the aid of the turbidity of a comparison suspension consisting of barium sulfate, this suspension being prepared by addition of 3.0 ml of 1% barium chloride solution to 97 ml of 1% sulfuric acid. After the standardization, streptococcus aronson were further diluted to a concentration of 1:15 and the other germs to a concentration of 1:1500 by menas of a sodium chloride solution.
(§3) 16 mg of the test substance were put into a 10 ml measuring flask and filled up to the mark with the solvent. The further dilution series was standardized with distilled water or the respective solvent.
(§4) The cavities of the microtiter plates were filled with 0.2 ml of nutrient medium. Then, 0.01 ml of the corresponding test substance dilution was added and inoculated with 0.01 ml of the standardized suspension. The bacteria were incubated at 37° C. for 18-20 hours. Control tests merely using the solvent were carried out simultaneously.
(§5) The measurement was carried out macroscopically to determine the minimal inhibitory (threshold) concentration, i.e. the lowest still bacteriostatically effective concentration.
(§6) Staphylococcus aureus SG 511, streptococcus aronson, streptococcus faecalis ATCC 10541, escherichia coli ATCC 9637, 11 775 and escherichia coli 12593/74 (β-lactamase carrier), pseudomonas aeruginosa hamburgensis and ATCC 10145, serratia marcescens ATCC 13 880, klebsiella pneumoniae ATCC 10 031 and 272 and proteus mirabilis hamburgensis.

[2] = test system: escherichia coli 12593/74 (β-lactamase carrier); assay: MIC, serial dilution test in the microtiter system; assay type: cell-based; settings: 18 h, E. coli 12593/74 (β-lactamase carrier), 37° C., 18-20 hours
Description: as §1, §2, §3, §4, §5, §6

[3] = test system: escherichia coli ATCC 11775; assay: MIC, serial dilution test in the microtiter system; assay type: cell-based; settings: ATCC11775, 18 h, E. coli ATCC 11775, 37° C., 18-20 hours
Description: as §1, §2, §3, §4, §5, §6

[4] = test system: escherichia coli ATCC 9637; assay: MIC, serial dilution test in the microtiter system; assay type: cell-based; settings: ATCC9637, 18 h, E. coli ATCC 9637, 37° C., 18-20 hours
Description: as §1, §2, §3, §4, §5, §6

[5] = test system: klebsiella pneumoniae 272; assay: MIC, serial dilution test in the microtiter system; assay type: cell-based; settings: 18 h, klebs pneum. 272, 37° C., 18-20 hours
Description: as §1, §2, §3, §4, §5, §6

[6] = test system: klebsiella pneumoniae ATCC 10 031; assay: MIC, serial dilution test in the microtiter system; assay type: cell-based; settings: 18 h, klebs pneum ATCC 10031, 37° C., 18-20 hours
Description: as §1, §2, §3, §4, §5, §6

[7] = test system: proteus mirabilis hamburgensis; assay: MIC, serial dilution test in the microtiter system; assay type: cell-based; settings: 18 h, prot. mirabilis, 37° C., 18-20 hours
Description: as §1, §2, §3, §4, §5, §6

[8] = test system: pseudomonas aeruginosa ATCC 10145; assay: MIC, serial dilution test in the microtiter system; assay type: cell-based; settings: ATCC10145, 18 h, pseud. aerug. ATCC 10145, 37° C., 18-20 hours
Description: as §1, §2, §3, §4, §5, §6

[9] = test system: pseudomonas aeruginosa hamburgensis; assay: MIC, serial dilution test in the microtiter system; assay type: cell-based; settings: 18 h, pseud. aerug. hamb., 37° C., 18-20 hours
Description: as §1, §2, §3, §4, §5, §6

[10] = test system: serratia marcescens ATCC 13 880; assay: MIC, serial dilution test in the microtiter system; assay type: cell-based; settings: ATCC13, 18 h, serrat marcesc., 37° C., 18-20 hours
Description: as §1, §2, §3, §4, §5, §6

streptococcus aronson = assay: MIC, serial dilution test in the microtiter system; assay type: cell-based; settings: 18 h, strept. aronson, 1% glucose added, 37° C., 18-20 hours
Description: as §1, §2, §3, §4, §5, §6

[11] = test system: streptococcus faecalis ATCC 10541; assay: MIC, serial dilution test in the microtiter system; assay type: cell-based; settings: Enterococcus faecalis, ATCC10541, 18 h; strept. faecal.; 37° C., 18-20 hours
Description: as §1, §2, §3, §4, §5, §6

[12] = Serum (blood) level in rats; assay type: in vivo; settings: rat, average from 3 rats; for concentration at 1 h: 60 min.; for concentration at 2 h: 120 min.; for concentration at 0.5 h: 30 min.
Description: For the determination of the serum level in rats, typical representatives of the penicillins according to the invention were administered at a dosage of 10 mg/kg subcutaneously or 100 mg/kg per os to groups of 3 female FW 49 rats (weight 100 to 130 gm) each. Blood tests taken from the heart were worked up, and the obtained sera were tested by the cylinder test-agar diffusion method on plates with sarcina lutea ATCC 15957. The samples were compared with standard curves.

E. coli ATCC 11775 [13] = assay: In vivo activity against experimental infection in mice; design: species or system mouse (NMRI); settings: Escherichia coli, 168 h, 7 days observation, read-out: ED50 (dose at which 50% of the animals survived)
Description: (§7) A number of compounds of this invention were tested in vivo in mice against experimental infections. Bacteria E. coli ATCC 11775 and pseudomonas aeruginosa walter were used as pathogens. An intraperitoneal infection with 0.2 ml of a 5% mucin suspension of the bacteria was induced. This corresponds to about 2×10^6 germs E. coli and 8×10^5 germs pseudomonas/mouse. Female NMRI mice were divided into groups of 10 animals each, two control groups remained untreated, the remaining groups were treated with different doses of the respective penicillins for the determination of the ED50 (dose at which 50% of the animals survived). The groups with the E. coli infection were treated with the substance 3 times on the first day (1, 4 and 7 hours post-infectionem) and for 2 days thereafter twice a day. The groups with the pseudomonas infection were treated with the substance applied 6 times on the first day (1, 3, 6, 9, 12, and 15 hours post-infectionem) and for 2 days thereafter twice a day. The observation time was in both cases 7 days.

E. coli ATCC 11775 [14] = assay: Influence of the size of the inoculum on the MIC-values; assay type: cell-based; settings: Escherichia coli
Description: (§8) For the penicillins C and H, which are typical representatives for this invention, the influence of the size of the inoculum on the MIC-values against ps. aerug. hamburg. and E. coli ATCC 11775 in the microtiter system was determined. Thereby 3 different sizes of inoculum (3.3×10^6, 3.3×10^4 and 3.3×10^2 in E. coli and 4.7×10^6, 4.7×10^4 and 4.7×10^2 in pseudomonas) were used. The reference system was again penicillin Q.

pseud. aerug. hamburg. = assay: as above; assay type: cell-based; settings: Pseudomonas aeruginosa
Description: as §8

[15] = test system: pseudomonas aeruginosa walter; assay: In vivo activity against experimental infection in mice; design: species or system mouse (NMRI); settings: sc, 168 h, subcutaneous, 7 days observation, read-out: ED50 (dose at which 50% of the animals survived)
Description: as §7

Pseudomonas = settings: in vivo as well as in vitro; cited from earlier work
[16] = ATCC11775, inoculum 3.3 × 10^2 germs/ml
[17] = ATCC11775, inoculum 3.3 × 10^4 germs/ml
[18] = ATCC11775, inoculum 3.3 × 10^6 germs/ml

Structure (SMILES)	MIC [1]	MIC [2]	MIC [3]	MIC [4]	MIC [5]	MIC [6]	MIC [7]	MIC [8]	MIC [9]	MIC [10]	MIC (streptococcus aronson)	MIC [11]	concentration at 1 h ([12]; oral 100 mg/kg)	concentration at 2 h ([12]; oral 100 mg/kg)	concentration at 1 h ([12]; sc, subcutaneous 10 mg/kg)	concentration at 2 h ([12]; sc, subcutaneous 10 mg/kg)	ED50 (E. coli ATCC 11775 [13]; ATCC11775, sc, subcutaneous)	MIC (E. coli ATCC 11775 [14]; [16])	MIC (E. coli ATCC 11775 [14]; [17])	MIC (E. coli ATCC 11775 [14]; [18])	other results
CC1(C)S[C@@H]2[C@H](NC(=O)[C@H](NC(=O)Nc3cnc(Nc4ccccc4)nc3O)c3ccc(O)cc3)C(=O)N2[C@H]1C(=O)O [G, D-α-[3-(2-anilino-4-hydroxy-5-pyrimidyl)-ureido]-p-hydroxy-benzyl-penicillin sodium]	0.3 mg/L	> 80 mg/L	1.25 mg/L	0.6 mg/L	5 mg/L	10 mg/L	2.5 mg/L	2.5 mg/L	5 mg/L	0.3 mg/L	0.08 mg/L	5 mg/L	0.6 µg/mL	0.1 µg/mL	5.6 µg/mL	1.5 µg/mL	8 mg/kg				
CC1(C)S[C@@H]2[C@H](NC(=O)[C@H](NC(=O)Nc3cnc(Nc4ccc(Cl)cc4)nc3O)c3ccc(O)cc3)C(=O)N2[C@H]1C(=O)O [H, D-α-[3-(2-p-chloroanilino-4-hydroxy-5-pyrimidyl)-ureido]-p-hydroxybenzyl-penicillin sodium]	1.25 mg/L	80 mg/L	0.6 mg/L	1.25 mg/L	2.5 mg/L	5 mg/L	0.6 mg/L	1.25 mg/L	2.5 mg/L	1.25 mg/L	0.08 mg/L	5 mg/L						0.3 mg/L	0.6 mg/L	1 mg/L	MIC (pseud. aerug. hamburg.; inoculum 4.7 × 10^2 germs/ml): 2.5 mg/L; MIC (pseud. aerug. hamburg.; inoculum 4.7 × 10^4 germs/ml): 2.5 mg/L; MIC (pseud. aerug. hamburg.; inoculum 4.7 × 10^6 germs/ml): > 80 mg/L
CC1(C)S[C@@H]2[C@H](NC(=O)[C@H](NC(=O)N3CCNC3=O)c3ccccc3)C(=O)N2[C@H]1C(=O)O [Q, reference compound]			10 mg/L (≈ 21.7 µM)	20 mg/L (≈ 43.3 µM)				5 mg/L (≈ 10.8 µM)	10 mg/L (≈ 21.7 µM)				0.6 µg/mL	0.3 µg/mL	3.7 µg/mL	0.4 µg/mL	35 mg/kg	10 mg/L (≈ 21.7 µM)	10 mg/L (≈ 21.7 µM)	10 mg/L (≈ 21.7 µM)	MIC (pseud. aerug. hamburg.; inoculum 4.7 × 10^2 germs/ml): 5 mg/L (≈ 10.8 µM); MIC (pseud. aerug. hamburg.; inoculum 4.7 × 10^4 germs/ml): 10 mg/L (≈ 21.7 µM); MIC (pseud. aerug. hamburg.; inoculum 4.7 × 10^6 germs/ml): > 80 mg/L; concentration at 0.5 h ([12]; oral 100 mg/kg): 0.8 µg/mL; concentration at 0.5 h ([12]; sc, subcutaneous 10 mg/kg): 2.8 µg/mL; ED50 (E. coli ATCC 11775 [13]; ATCC11775, po, peroral): 320 mg/kg; ED50 [15]: 110 mg/kg
CC1(C)S[C@@H]2[C@H](NC(=O)C(c3ccccc3)S(=O)(=O)O)C(=O)N2[C@H]1C(=O)O (stereo partly shown) [Sulbenicillin]																					antipseudomonal activity (Pseudomonas): only a poor activity
